In patent US20230293511A1, “Ophthalmic Compositions and Uses Thereof” (priority 2022, published 2023):
Read-outs that look alike come from different tables or passages of the source.

System: patients with Fuchs Corneal Dystrophy (corneal edema)
Assay type: in vivo, human
Conditions: for BCVA (best corrected visual acuity) improvement: netarsudil QD
Source text: FIG. 1 is a graphic representation of the study described in Example 6.
A Randomized, Open-Label, Parallel-Group Study of Two Dosing Regimens of Netarsudil in Patients with Fuchs Corneal Dystrophy
Fuchs Corneal Dystrophy (FCD) is a slowly progressive corneal disease, and is the most common indication for corneal transplants worldwide. A typical patient presents with blurred vision, glare, and a hazy cornea from corneal edema. The only definitive treatment option to restore vision is surgery. There is a large unmet need for pharmacologic alternatives to surgery
Purpose of this study: evaluate the therapeutic potential of two dosing regimens of netarsudil, a Rho kinase inhibitor, to reduce corneal edema and improve visual acuity in patients with FCD. […] Complete resolution of edema in 12.5% of patients at Week 4 (BID+QD) (FIG. 2). • d. 25% of patients gained letters from baseline in BCVA at Week 4 (BID+QD) (FIG. 4). • e. […] Improvements in validated patient reported outcome questionnaire shown at all timepoints with netarsudil QD dosing (FIG. 5). • g. […] Most common ocular TEAE was hyperemia accounting for 3/9 and 6/17 total ocular TEAE in the QD and BID groups, respectively. • i. Reticular edema developed in 1 patient in BID group, which resolved with treatment discontinuation.

Cc1ccc(C(=O)OCc2ccc([C@@H](CN)C(=O)Nc3ccc4cnccc4c3)cc2)c(C)c1 [netarsudil, Netarsudil]
reticular edema developed (human, in vivo): 1 patient
tolerability (human, in vivo): well tolerated
BCVA (best corrected visual acuity) improvement (week 2): 5.0 letters
BCVA (best corrected visual acuity) improvement (week 4): 3.2 letters
patients with complete resolution of edema (week 4, BID+QD): 12.5%
patients who gained letters from baseline in BCVA (week 4, overall (BID+QD)): 25%
